Assays:
[1] = system: C-TDP-43 expressed Neuro-2a cells; test: AlamarBlue cell viability in C-TDP-43 expressed Neuro-2a cells; type: cell-based, mouse; conditions: 5 μM; eGFP-C-TDP-43 overexpressing Neuro-2a cells; mock 0.43±0.04 vs blank control 1±0.03
Procedure: Neuro-2a cells were seeded in a 24-well plate at a concentration of 8×10^4 cells/well and incubated overnight. The attached Neuro-2a cells were then transfected with the eGFP-C-TDP-43 plasmid (1.1 μg) using TurboFect™ transfection reagent (Invitrogen) according to manufacturer's recommendations, and treated with or without 5 μM test compound after 2 h transfection. The cell viability indicator, AlamarBlue (Invitrogen), was added after 42 h of incubation, and the mixture was incubated for another 6 h. […] conditional medium was transferred to a 96-well plate, and cell viability was determined by the increased fluorescence intensity (λex=560 nm, λem=590 nm).
In this example, whether the compounds of formula (I) or (II) could relieve C-TDP-43-mediated cytotoxicity was examined.

[2] = system: YFP—C-TDP-43 transgenic C. elegans; test: Swimming (thrashing) body bend assay of YFP-C-TDP-43 transgenic C. elegans; type: in vivo; conditions: YFP—C-TDP-43 C. elegans, swimming in buffer, 30 seconds
Procedure: (§1) The YFP—C-TDP-43 transgenic strains of C. elegans generated in this study were IW33 [Psnb-l:C-TDP-43219-414-YFP (iwIs22)]. The strains of nematodes were maintained with standard procedure and grown at 20° C. as previously described (Zhang, T. et al. Hum. Mol. Genet. 2011, 20 (10), 1952). For all assays, the transgenic young two-day (80 hours) adults were used. For larvae synchronization, the eggs were isolated by lysing gravid adult worms with freshly prepared bleaching solution (0.5 mL 5 M NaOH with 1 mL bleach) and incubated in S buffer (recipe) for overnight. For drug treatments, compound I-1b and/or DMSO were solely or along with MG132 applied to fresh NGM plates prior to installing the synchronized C. elegans. The body bends of the corresponding treatment in a duration of 30 seconds of the various strains were documented through SMZ800N stereomicroscope equipped with a CCD camera (Nikon). A body bend was counted as the head of C. elegans travels across the mid-body in 1×PBS buffer. Then, the bending videos of C. elegans were analyzed by ImageJ with the wrMTrck plugin (Nussbaum-Krammer, C. I. et al. J. Vis. Exp. 2015, (95), 52321). […]
(§2) As YFP—C-TDP-43 readily forms cytosolic aggregates in nervous system, the YFP—C-TDP-43 aggregates both in the neuron processes and neuron bodies of the ventral cord were monitored. […]

Neuro-2a cells = test: Cytotoxicity of compounds in Neuro-2a cells; type: cell-based, mouse; conditions: 5 μM concentration
eGFP-C-TDP-43 = biological target: T1, eGFP-C-TDP-43 (Homo sapiens, UniProt Q13148); test: SDS-PAGE dose dependency of eGFP-C-TDP-43 degradation; type: cell-based, mouse; conditions: Neuro-2a cells
T1 construct: expressed in transfected cells; host or cells: Neuro-2a (mouse neuroblastoma)
Procedure: Proteins were separated using 12% Tris-glycine SDS-PAGE. Proteins were transferred onto PVDF membrane (Millipore). Blots were blocked with 5% bovine serum albumin (BSA, Sigma) in 0.1% PBST for at least 1 hour. After blocking, blots were subjected to incubation with the primary antibodies TDP-43 (C-terminal) (1:1,000, Proteintech), TDP-43 (1:1,000, Abcam), p-TDP-43 (pS409/410) (1:1,000, Cosmo Bio), GFP (1:1,000, Abcam), All (1:1,000, Invitrogen), GAPDH (1:10,000, GeneTex), or β-actin (1:10,000, GeneTex) in 2% BSA and incubated overnight at 4° C. on a shaker. After washed with PBST, the blots were further incubated with HRP-labelled secondary antibodies (1:3,000, GeneTex) at room temperature for another 1 hour. The blots were washed and developed with electrochemiluminescence (ECL, Millipore). The signals were visualized with luminescence (iBright™ FL1000 instrument, Invitrogen).
Based on the amount of j-actin (internal control) on NC membrane, overexpression of eGFP-C-TDP-43 did induce a significant amount of C-TDP-43 species (mock control, 1.08±0.31, the black bar in FIG. 1, (B)) comparing with that in blank control of Neuro-2a cells (0.38±0.08, the white bar in FIG. 1, (B)). […]

YFP—C-TDP-43 aggregates = biological target: T2, YFP—C-TDP-43 aggregates (Homo sapiens, UniProt Q13148); test: YFP-C-TDP-43 aggregates in transgenic C. elegans (confocal imaging); type: in vivo; conditions: 5 μM I-1b; compared to DMSO control or MG132-treated group
T2 construct: IW33 [Psnb-l:C-TDP-43219-414-YFP (iwIs22)]; expressed in transfected cells; host or cells: transgenic C. elegans strain IW33 (pan-neuronal snb-1 promoter)
Procedure: as §1, §2

T1 sequence (Q13148 208-414 limits assumed): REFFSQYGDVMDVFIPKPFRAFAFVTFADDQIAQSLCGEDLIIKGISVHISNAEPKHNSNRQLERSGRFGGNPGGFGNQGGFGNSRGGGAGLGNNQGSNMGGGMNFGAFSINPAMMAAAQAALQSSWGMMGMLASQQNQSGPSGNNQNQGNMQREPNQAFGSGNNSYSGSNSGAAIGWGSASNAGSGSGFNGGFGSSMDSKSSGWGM
T2 sequence (Q13148 219-414 limits assumed): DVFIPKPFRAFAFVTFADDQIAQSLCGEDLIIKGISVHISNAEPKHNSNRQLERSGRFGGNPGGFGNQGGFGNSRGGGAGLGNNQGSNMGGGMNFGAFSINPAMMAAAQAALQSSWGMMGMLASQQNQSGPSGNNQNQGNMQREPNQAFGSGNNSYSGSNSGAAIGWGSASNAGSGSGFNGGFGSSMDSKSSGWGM

CN(C)c1ccc(-c2nc3ccc(OCCOCCOCCNc4cccc5c4C(=O)N(C4CCC(=O)NC4=O)C5=O)cc3s2)cc1 (centres unmarked) [I-1b, 4-((2-(2-(2-((2-(4-(dimethylamino)phenyl)benzo[d]thiazol-6-yl)oxy)ethoxy)ethoxy)ethyl)amino)-2-(2,6-dioxopiperidin-3-yl)isoindoline-1,3-dione] was tested, and the cell viability [1] was 0.56±0.04, the “increase of bending frequency as compared to the DMSO control group” value [2] was 28% and the “cytotoxicity comparing to mock group of Neuro-2a cells” value (Neuro-2a cells) was “neglectable cytotoxicity”. For the same compound, the “degradation of eGFP-C-TDP-43, dose dependency” value (eGFP-C-TDP-43) was “degraded eGFP-C-TDP-43 in a dose-dependent manner” and the “YFP—C-TDP-43 aggregates in neuron processes and neuron bodies of the ventral cord” value (YFP—C-TDP-43 aggregates) was “fewer aggregates with reduced fluorescence intensity”.

From patent US20240400549A1, “COMPOUNDS AND THEIR USES FOR TREATING NEURODEGENERATIVE DISEASE” (Academia Sinica, priority 2021, published 2024)
